Measured values taken from patent US12258327B2, “5-membered heteroaryl-containing aminopyridine compounds as EGFR inhibitors” (YUHAN CORPORATION, priority 2021, dated 2025).
Read-outs that look alike come from different tables or passages of the source.

Tests used:
EGFR del19/T790M/C797S = EGFR del19/T790M/C797S (Homo sapiens, UniProt P00533, C797S/DEL746-750/T790M); experiment: Biochemical EGFR kinase assay (Lance Ultra TR-FRET), triple mutant del19/T790M/C797S
Outline: (§1)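 In this biochemical assay, phosphorylation after a one-hour room-temperature reaction was detected with europium-labelled anti-phosphopeptide antibody at 2 nM final concentration.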

EGFR del19/C797S = EGFR del19/C797S (Homo sapiens, UniProt P00533, C797S/DEL746-750); experiment: Biochemical EGFR kinase assay (Lance Ultra TR-FRET), double mutant del19/C797S
Sequence of EGFR del19/C797S (P00533 with tags, fused parts or gaps DEL746-750/C797S): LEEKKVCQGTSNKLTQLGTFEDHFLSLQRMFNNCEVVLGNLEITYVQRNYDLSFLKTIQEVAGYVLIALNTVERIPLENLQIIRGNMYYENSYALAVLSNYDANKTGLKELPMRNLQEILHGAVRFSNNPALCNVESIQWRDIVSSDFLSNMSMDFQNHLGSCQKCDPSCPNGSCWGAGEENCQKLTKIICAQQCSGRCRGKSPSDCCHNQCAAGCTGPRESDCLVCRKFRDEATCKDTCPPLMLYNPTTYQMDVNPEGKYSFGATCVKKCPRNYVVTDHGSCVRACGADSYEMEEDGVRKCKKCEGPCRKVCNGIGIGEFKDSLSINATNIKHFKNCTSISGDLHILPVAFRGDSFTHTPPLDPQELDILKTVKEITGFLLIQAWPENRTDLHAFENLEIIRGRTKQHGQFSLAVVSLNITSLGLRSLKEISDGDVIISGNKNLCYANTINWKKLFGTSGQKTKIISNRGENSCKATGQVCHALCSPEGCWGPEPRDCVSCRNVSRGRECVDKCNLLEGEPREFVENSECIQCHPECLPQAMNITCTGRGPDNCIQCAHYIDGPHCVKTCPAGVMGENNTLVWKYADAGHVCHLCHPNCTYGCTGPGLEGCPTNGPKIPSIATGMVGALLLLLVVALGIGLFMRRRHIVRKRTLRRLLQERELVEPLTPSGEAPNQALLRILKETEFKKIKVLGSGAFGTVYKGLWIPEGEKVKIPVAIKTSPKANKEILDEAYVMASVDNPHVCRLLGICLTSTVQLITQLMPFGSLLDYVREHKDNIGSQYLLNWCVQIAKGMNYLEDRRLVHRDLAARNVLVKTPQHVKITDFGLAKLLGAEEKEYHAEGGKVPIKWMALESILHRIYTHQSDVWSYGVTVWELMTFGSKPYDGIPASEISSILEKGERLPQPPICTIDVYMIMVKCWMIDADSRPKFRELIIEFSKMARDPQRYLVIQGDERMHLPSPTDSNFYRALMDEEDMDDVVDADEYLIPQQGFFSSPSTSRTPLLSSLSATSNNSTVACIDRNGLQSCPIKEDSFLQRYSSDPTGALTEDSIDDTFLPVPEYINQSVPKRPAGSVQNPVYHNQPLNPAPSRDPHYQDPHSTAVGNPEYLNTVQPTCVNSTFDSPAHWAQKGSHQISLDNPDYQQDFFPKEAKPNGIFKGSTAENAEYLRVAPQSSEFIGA
Outline: as §1

EGFR wildtype (WT) = EGFR wildtype (WT) (Homo sapiens, UniProt P00533); experiment: Biochemical EGFR kinase assay (Lance Ultra TR-FRET), wildtype
Sequence of EGFR wildtype (WT) (P00533 25-1210): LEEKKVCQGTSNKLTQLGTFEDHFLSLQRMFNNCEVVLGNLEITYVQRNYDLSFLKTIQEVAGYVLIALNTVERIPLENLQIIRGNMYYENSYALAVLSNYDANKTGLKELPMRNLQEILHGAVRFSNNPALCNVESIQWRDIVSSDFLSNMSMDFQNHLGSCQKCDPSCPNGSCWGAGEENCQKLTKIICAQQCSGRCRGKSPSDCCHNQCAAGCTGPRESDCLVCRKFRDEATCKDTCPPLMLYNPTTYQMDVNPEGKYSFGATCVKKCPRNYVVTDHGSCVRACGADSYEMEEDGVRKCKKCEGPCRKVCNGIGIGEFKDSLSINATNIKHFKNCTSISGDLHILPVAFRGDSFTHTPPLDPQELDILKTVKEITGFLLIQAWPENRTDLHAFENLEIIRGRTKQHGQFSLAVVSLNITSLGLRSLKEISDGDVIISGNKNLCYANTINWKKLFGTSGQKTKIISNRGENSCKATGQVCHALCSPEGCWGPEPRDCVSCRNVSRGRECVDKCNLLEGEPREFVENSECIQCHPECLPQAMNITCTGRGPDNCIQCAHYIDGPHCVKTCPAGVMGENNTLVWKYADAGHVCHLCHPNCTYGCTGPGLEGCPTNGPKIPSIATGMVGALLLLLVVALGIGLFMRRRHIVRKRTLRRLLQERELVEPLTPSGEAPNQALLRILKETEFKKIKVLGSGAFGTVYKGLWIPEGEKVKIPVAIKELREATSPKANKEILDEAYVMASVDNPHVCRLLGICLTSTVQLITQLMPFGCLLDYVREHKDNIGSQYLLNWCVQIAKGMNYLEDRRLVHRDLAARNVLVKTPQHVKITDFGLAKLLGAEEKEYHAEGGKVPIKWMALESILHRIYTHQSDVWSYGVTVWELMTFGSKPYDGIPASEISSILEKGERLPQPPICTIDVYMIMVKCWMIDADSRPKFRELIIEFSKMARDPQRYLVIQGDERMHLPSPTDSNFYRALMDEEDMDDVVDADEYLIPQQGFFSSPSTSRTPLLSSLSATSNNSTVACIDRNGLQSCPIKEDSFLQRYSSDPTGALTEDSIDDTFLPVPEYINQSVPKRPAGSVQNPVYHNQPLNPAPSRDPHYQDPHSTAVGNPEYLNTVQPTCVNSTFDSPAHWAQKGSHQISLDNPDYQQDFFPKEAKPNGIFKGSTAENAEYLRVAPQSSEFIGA
Outline: as §1

EGFR L858R/C797S = EGFR L858R/C797S (Homo sapiens, UniProt P00533, C797S/L858R); experiment: Biochemical EGFR kinase assay (Lance Ultra TR-FRET), double mutant L858R/C797S
Outline: as §1

EGFR L858R/T790M/C797S = EGFR L858R/T790M/C797S (Homo sapiens, UniProt P00533, C797S/L858R/T790M); experiment: Biochemical EGFR kinase assay (Lance Ultra TR-FRET), triple mutant L858R/T790M/C797S
Sequence of EGFR L858R/T790M/C797S (P00533 25-1210 T790M/C797S/L858R): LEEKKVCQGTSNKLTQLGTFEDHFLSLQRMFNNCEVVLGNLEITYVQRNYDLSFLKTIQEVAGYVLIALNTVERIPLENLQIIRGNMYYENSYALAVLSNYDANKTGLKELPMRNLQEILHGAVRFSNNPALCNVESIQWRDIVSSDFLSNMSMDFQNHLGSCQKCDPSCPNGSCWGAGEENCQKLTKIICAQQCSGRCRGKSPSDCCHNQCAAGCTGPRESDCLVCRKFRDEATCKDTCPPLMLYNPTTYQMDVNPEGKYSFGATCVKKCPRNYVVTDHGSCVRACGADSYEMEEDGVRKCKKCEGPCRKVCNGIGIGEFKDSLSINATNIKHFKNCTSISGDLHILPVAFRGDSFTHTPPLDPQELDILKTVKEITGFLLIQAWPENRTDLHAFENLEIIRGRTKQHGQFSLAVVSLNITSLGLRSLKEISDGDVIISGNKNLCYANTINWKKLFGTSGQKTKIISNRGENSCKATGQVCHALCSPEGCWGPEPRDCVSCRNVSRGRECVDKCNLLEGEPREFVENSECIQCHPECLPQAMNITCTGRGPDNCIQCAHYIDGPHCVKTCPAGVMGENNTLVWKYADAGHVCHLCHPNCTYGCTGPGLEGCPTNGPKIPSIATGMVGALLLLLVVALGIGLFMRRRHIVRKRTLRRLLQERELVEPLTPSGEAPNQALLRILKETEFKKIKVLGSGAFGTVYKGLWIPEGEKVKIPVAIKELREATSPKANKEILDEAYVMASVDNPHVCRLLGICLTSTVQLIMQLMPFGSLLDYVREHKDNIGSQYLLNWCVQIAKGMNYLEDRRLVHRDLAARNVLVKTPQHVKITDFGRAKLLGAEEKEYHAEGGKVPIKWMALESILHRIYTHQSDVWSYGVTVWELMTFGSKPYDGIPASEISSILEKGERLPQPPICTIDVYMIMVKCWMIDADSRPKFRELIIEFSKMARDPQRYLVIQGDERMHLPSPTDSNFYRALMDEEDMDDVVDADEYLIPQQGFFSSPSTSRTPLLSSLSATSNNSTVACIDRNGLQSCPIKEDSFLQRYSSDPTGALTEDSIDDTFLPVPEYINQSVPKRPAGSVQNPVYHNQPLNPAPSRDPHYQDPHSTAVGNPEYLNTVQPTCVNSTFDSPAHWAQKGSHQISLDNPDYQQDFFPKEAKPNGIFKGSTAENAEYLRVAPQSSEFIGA
Outline: as §1

[1] = IC50 del19/T790M/C797S, 100 μM ATP
[2] = Km ATP, read-out: IC50 del19/T790M/C797S, Km ATP
[3] = Km ATP, read-out: IC50 del19/C797S, Km ATP
[4] = Km ATP, read-out: IC50 WT, Km ATP
[5] = Km ATP, read-out: IC50 L858R/C797S, Km ATP
[6] = IC50 L858R/T790M/C797S, 100 μM ATP
[7] = Km ATP, read-out: IC50 L858R/T790M/C797S, Km ATP

Sequence of EGFR del19/T790M/C797S (P00533 with tags, fused parts or gaps DEL746-750/T790M/C797S): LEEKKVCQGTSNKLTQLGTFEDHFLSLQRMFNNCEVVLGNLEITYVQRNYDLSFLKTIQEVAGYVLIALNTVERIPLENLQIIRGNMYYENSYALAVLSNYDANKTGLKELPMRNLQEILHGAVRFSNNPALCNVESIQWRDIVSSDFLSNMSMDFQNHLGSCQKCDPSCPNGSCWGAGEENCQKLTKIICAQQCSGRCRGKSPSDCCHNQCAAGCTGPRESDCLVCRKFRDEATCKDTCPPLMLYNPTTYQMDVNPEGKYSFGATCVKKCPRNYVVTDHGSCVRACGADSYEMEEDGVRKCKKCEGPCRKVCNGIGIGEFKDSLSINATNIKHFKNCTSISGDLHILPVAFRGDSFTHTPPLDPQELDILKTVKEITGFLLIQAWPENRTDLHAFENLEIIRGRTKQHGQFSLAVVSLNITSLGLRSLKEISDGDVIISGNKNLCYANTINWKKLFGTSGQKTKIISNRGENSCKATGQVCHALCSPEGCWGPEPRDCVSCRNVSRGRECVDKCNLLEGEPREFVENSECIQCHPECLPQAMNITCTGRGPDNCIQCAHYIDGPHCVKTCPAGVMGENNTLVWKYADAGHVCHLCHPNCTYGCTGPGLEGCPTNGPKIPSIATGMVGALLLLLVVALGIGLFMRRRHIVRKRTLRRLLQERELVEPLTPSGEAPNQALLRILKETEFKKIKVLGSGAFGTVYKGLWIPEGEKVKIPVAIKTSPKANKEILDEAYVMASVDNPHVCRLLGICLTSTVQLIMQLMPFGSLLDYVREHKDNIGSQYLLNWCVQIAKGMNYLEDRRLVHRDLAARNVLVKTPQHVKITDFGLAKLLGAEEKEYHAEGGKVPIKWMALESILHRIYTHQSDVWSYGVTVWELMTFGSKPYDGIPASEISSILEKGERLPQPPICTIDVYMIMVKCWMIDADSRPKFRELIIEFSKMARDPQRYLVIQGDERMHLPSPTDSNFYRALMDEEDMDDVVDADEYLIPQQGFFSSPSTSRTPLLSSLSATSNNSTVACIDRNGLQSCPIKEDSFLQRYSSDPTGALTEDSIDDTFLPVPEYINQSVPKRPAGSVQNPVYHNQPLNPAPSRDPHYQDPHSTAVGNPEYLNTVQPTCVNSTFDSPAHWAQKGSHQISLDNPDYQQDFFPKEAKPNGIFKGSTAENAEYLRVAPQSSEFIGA

Row | IC50 (EGFR del19/T790M/C797S; [1]) | IC50 (EGFR del19/T790M/C797S; [2]) | IC50 (EGFR del19/C797S; IC50 del19/C797S, 100 μM ATP) | IC50 (EGFR del19/C797S; [3]) | IC50 (EGFR wildtype (WT); IC50 WT, 100 μM ATP) | IC50 (EGFR wildtype (WT); [4]) | IC50 (EGFR L858R/C797S; IC50 L858R/C797S, 100 μM ATP) | IC50 (EGFR L858R/C797S; [5]) | IC50 (EGFR L858R/T790M/C797S; [6]) | IC50 (EGFR L858R/T790M/C797S; [7]) | SMILES
1 | 0.4 nM | 0.2 nM | 8 nM | 6 nM | > 10000 nM | 144 nM | 126 nM | 11 nM | 0.9 nM | 0.1 nM | C[C@]1(O)CC[C@@H](Nc2cc(Nc3ccnc(-c4cnn(S(=O)(=O)C5CC5)c4)n3)ncc2-n2cccn2)CC1 [Example 376, (1s,4s)-4-((2-((2-(1-(Cyclopropylsulfonyl)-1H-pyrazol-4-yl)pyrimidin-4-yl)amino)-5-(1H-pyrazol-1-yl)pyridin-4-yl)amino)-1-methylcyclohexan-1-ol]
2 | 0.4 nM | 0.2 nM | 5.8 nM | 4.2 nM | > 10000 nM | 98.8 nM | 172 nM | 5.7 nM | 0.7 nM | 0.1 nM | O=S(=O)(C1CC1)n1cc(-c2nccc(Nc3cc(N[C@H]4C[C@@H](CO)C4)c(-c4ccn(C(F)F)n4)cn3)n2)cn1 [Example 377, ((1s,3s)-3-((2-((2-(1-(Cyclopropylsulfonyl)-1H-pyrazol-4-yl)pyrimidin-4-yl)amino)-5-(1-(difluoromethyl)-1H-pyrazol-3-yl)pyridin-4-yl)amino)cyclobutyl)methanol]
3 | 1.7 nM | 1.2 nM | 23.9 nM | 16.7 nM | > 10000 nM | 254 nM | 518 nM | 14.4 nM | 3.1 nM | 0.3 nM | C[C@]1(CO)C[C@@H](Nc2cc(Nc3ccnc(-c4cnn(S(=O)(=O)C5CC5)c4)n3)ncc2-c2ccn(C(F)F)n2)C1 [Example 378, ((1s,3s)-3-((2-((2-(1-(Cyclopropylsulfonyl)-1H-pyrazol-4-yl)pyrimidin-4-yl)amino)-5-(1-(difluoromethyl)-1H-pyrazol-3-yl)pyridin-4-yl)amino)-1-methylcyclobutyl)methanol]
